According to US20260317324A1, “BIFUNCTIONAL COMPOUNDS FOR DEGRADING BRAF VIA UBIQUITIN PROTEOSOME PATHWAY” (Nurix Therapeutics, Inc., priority 2023, published 2026):

Experiments:
Assay type in all cases: cell-based
BRAF V600E = biological target: T1, BRAF V600E (Homo sapiens, UniProt P15056, V600E); test: BRAF HiBiT degradation assay, C-terminal HiBiT-tagged BRAF V600E A375 cells (clone 1F10), Nano-Glo HiBiT Lytic assay; settings: A375 (BRAF V600E, Class 1); for DC50: DC50 at 50% degradation; for Dmax: A-375, observed Dmax, % protein degraded relative to DMSO control
T1 construct: endogenous C-terminal HiBiT fusion tag on BRAF V600E allele; endogenous in cells; host or cells: A375 clone 1F10 (CRISPR-Cas9 knock-in of the HiBiT tag; parental A375 from ATCC)
T1 sequence (P15056 whole entry V600E, the tested form may be a part): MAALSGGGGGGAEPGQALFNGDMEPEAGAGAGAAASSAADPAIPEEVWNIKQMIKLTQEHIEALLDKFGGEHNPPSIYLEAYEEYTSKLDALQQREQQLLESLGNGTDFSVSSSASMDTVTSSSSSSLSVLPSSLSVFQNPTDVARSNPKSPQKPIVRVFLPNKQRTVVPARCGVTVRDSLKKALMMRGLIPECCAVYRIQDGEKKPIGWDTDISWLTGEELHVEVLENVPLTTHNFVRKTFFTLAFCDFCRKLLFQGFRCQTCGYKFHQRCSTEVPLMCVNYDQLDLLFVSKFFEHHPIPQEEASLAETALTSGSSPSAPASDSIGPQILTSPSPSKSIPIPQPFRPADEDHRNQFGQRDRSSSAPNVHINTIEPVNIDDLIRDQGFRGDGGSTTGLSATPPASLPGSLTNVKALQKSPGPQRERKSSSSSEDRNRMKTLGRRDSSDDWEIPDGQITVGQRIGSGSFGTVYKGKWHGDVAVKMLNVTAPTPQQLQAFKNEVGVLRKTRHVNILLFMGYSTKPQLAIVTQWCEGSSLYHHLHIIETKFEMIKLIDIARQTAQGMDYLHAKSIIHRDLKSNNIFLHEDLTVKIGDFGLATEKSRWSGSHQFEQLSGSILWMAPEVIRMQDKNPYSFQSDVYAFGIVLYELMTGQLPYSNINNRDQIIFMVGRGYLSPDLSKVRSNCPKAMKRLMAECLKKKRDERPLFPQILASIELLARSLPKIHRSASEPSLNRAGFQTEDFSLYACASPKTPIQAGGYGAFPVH
How it was run: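 Luminescence from the Nano-Glo HiBiT lytic read-out gave % BRAF V600E remaining versus DMSO-treated tagged cells, with untagged A375 as background. Clone 1F10 cells (10,000/well, 24 h pre-culture) received compound at 1 μM–0.01 nM in half-log steps, 0.2% DMSO; curve fits gave DC50 at Y=50, plus observed Dmax.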

BRAF G466V = biological target: T2, BRAF G466V (Homo sapiens, UniProt P15056, G466V); test: BRAF HiBiT degradation assay, C-terminal HiBiT-tagged BRAF G466V overexpressed in HCT-116 BRAF−/− cells (clone 8), Nano-Glo HiBiT Lytic assay; settings: BRAF G466V (Class 3), HCT-116 BRAF−/− cells; for DC50: DC50 at 50% degradation; for Dmax: observed Dmax relative to DMSO control
T2 construct: Horizon Discovery (HCT-116 BRAF−/− cells); host or cells: HCT-116 BRAF−/− cells, clone 8, lentiviral transduction
T2 sequence (P15056 whole entry G466V): as the sequence (P15056 whole entry V600E, the tested form may be a part) above, with G466V, E600V counted along it
Text: (§1) An A375 cell line expressing a homozygous V600E mutation was purchased from ATCC (Manassas, VA, USA). An A375 clone 1F10 cell line with an endogenous C-terminal HiBiT fusion tag on BRAF V600E allele was generated internally using CRISPR-Cas9 technology and cultured in DMEM, high glucose supplemented with 10% FBS and 1× GlutaMAX. A HCT-116 BRAF−/− cell line overexpressing the C-terminal HiBiT-tagged G466V, G469A, and D594G mutants were generated by lentiviral transduction, externally at Biosettia Inc (San Diego, CA, USA). The stably transfected cells were cultured in RPMI media supplemented with 10% FBS, 1× GlutaMAX, and 0.25 μg/ml puromycin. DMEM medium, RPMI 1640 medium, GlutaMAX, fetal bovine serum (FBS), and puromycin were purchased from Gibco (Grand Island, NY, USA). HCT-116 BRAF−/− cells were purchased from Horizon Discovery (Waterbeach, UK).
(§2) The C-terminal HiBiT tagged mutant BRAF G466V, G469A, and D594G overexpressed in HCT-116 BRAF−/− cells (monoclonal cell line, cell clones 8, 34, and 63, respectively) were seeded at the density of 3,000 cells/well in 30 μL media (RPMI supplemented with 10% FBS and 1× GlutaMAX) in white opaque 384-well plates (Corning #3570) from column 1 to column 23. Wildtype HCT-116 BRAF cells were seeded in column 24 at the same cell density in 30 μL media. Cells were incubated at 37° C. with 5% CO2 for 24 h.
(§3) Intermediate compound dilution series (5-point, ranging from 5 mM to 0.5 μM, 10-fold dilutions in DMSO) were prepared in a source plate (Beckman Coulter cat. no. 001-16128). Final compound dilution series (11-point, ranging from 1 μM to 0.01 nM, half-log dilutions in DMSO) were stamped into the assay plate (Corning #3570, column 1-11 and 12-22) using the Echo Acoustic Liquid Handler (Beckman Coulter). Each compound was plated in duplicate, and the total volume of compound DMSO solution was 60 nL/well (0.2% final DMSO concentration). DMSO was included in wells A23-L23 and A24-L24. The DMSO-treated HiBiT-tagged samples served as Negative Control (NC) and the DMSO-treated wildtype samples served as Background Control (BC) for the HiBiT assay.
(§4) HiBiT signal was measured by a Nano-Glo HiBiT Lytic assay (Promega cat. no. N3050). HiBiT lytic detection reagent (Nano-Glo HiBiT Lytic Buffer with 1:50 Nano-Glo HiBiT Lytic Substrate and 1:100 LgBiT Protein, 40 μL) was added using Bravo. The mixture was incubated at room temperature, in the dark, and with gentle shaking for 10 min. Luminesce units (LU) were read on an EnVision plate reader 2105 (Perkin Elmer).
(§5) Percent protein remaining and viability remaining per sample were calculated as follows: […]
(§6) % Protein remaining values were plotted as a function of compound concentration. XC50 (DC50) values were determined by fitting curves using the following equation:
(§7) For the HiBiT degradation assay, the key parameters reported include: • The dose of compound that produces 50% degradation (DC50 at 50%): • DC50 at 50%: the Fitted X value (Conc.) at Y=50 (response) • Observed Dmax (Obs. Dmax) is the percentage protein degraded at maximal compound effect relative to DMSO-treated control: […]

BRAF G469A = biological target: T3, BRAF G469A (Homo sapiens, UniProt P15056, G469A); test: BRAF HiBiT degradation assay, C-terminal HiBiT-tagged BRAF G469A overexpressed in HCT-116 BRAF−/− cells (clone 34), Nano-Glo HiBiT Lytic assay; settings: BRAF G469A (Class 2), HCT-116 BRAF−/− cells; for DC50: DC50 at 50% degradation; for Dmax: observed Dmax relative to DMSO control
T3 construct: Horizon Discovery (HCT-116 BRAF−/− cells); host or cells: HCT-116 BRAF−/− cells, clone 34, lentiviral transduction
T3 sequence (P15056 whole entry G469A): as the sequence (P15056 whole entry V600E, the tested form may be a part) above, with G469A, E600V counted along it
Text: as §1, §2, §3, §4, §5, §6, §7

BRAF D594G = biological target: T4, BRAF D594G (Homo sapiens, UniProt P15056, D594G); test: BRAF HiBiT degradation assay, C-terminal HiBiT-tagged BRAF D594G overexpressed in HCT-116 BRAF−/− cells (clone 63), Nano-Glo HiBiT Lytic assay; settings: BRAF D594G (Class 3), HCT-116 BRAF−/− cells; for DC50: DC50 at 50% degradation; for Dmax: observed Dmax relative to DMSO control
T4 construct: Horizon Discovery (HCT-116 BRAF−/− cells); host or cells: HCT-116 BRAF−/− cells, clone 63, lentiviral transduction
T4 sequence (P15056 whole entry D594G): as the sequence (P15056 whole entry V600E, the tested form may be a part) above, with D594G, E600V counted along it
Text: as §1, §2, §3, §4, §5, §6, §7

DC50 (BRAF V600E) [nM]	Dmax (BRAF V600E) [%]	DC50 (BRAF G466V) [nM]	Dmax (BRAF G466V) [%]	DC50 (BRAF G469A) [nM]	Dmax (BRAF G469A) [%]	DC50 (BRAF D594G) [nM]	Dmax (BRAF D594G) [%]	Structure (SMILES)
< 10	> 70	< 10	> 70	< 10	> 70	< 10	> 70	C[C@@H]1CN(c2ccc(-n3cc(-c4cc(Cl)cc(NS(=O)(=O)N5CCCC5)c4F)c(-c4ccncc4)n3)cc2)CCN1CC1CCN(c2ccc(C3CCC(=O)NC3=O)cn2)CC1 (mixture of isomers) [Compound 268, N-(5-chloro-3-(1-(4-((R)-4-((1-(5-((RS)-2,6-dioxopiperidin-3-yl)pyridin-2-yl)piperidin-4-yl)methyl)-3-methylpiperazin-1-yl)phenyl)-3-(pyridin-4-yl)-1H-pyrazol-4-yl)-2-fluorophenyl)pyrrolidine-1-sulfonamide]
< 10	> 70	< 10	> 70	< 10	> 70	< 10	30 to 70	CCCS(=O)(=O)Nc1cc(Cl)cc(-c2cn(-c3ccc(N4CCN(CC5CCN(c6ccc(C7CCC(=O)NC7=O)cn6)CC5)[C@H](C)C4)cc3)nc2-c2ccncc2)c1F (mixture of isomers) [Compound 276, N-[5-chloro-3-(1-{4-[(3R)-4-[(1-{5-[(3RS)-2,6-dioxopiperidin-3-yl]pyridin-2-yl}piperidin-4-yl)methyl]-3-methylpiperazin-1-yl]phenyl}-3-(pyridin-4-yl)-1H-pyrazol-4-yl)-2-fluorophenyl]propane-1-sulfonamide]
< 10	> 70	< 10	> 70	10 to 50	30 to 70	< 10	30 to 70	CCCS(=O)(=O)Nc1cc(Cl)cc(-c2cn(-c3ccc(N4CCN(CC5CCN(c6ccc(C7CCC(=O)NC7=O)cn6)CC5)[C@@H](C)C4)cc3)nc2-c2ccncc2)c1F (mixture of isomers) [Compound 279, N-[5-chloro-3-(1-{4-[(3S)-4-[(1-{5-[(3RS)-2,6-dioxopiperidin-3-yl]pyridin-2-yl}piperidin-4-yl)methyl]-3-methylpiperazin-1-yl]phenyl}-3-(pyridin-4-yl)-1H-pyrazol-4-yl)-2-fluorophenyl]propane-1-sulfonamide]
< 10	> 70	< 10	> 70	10 to 50	> 70	< 10	> 70	C[C@@H]1CN(c2ccc(-n3cc(-c4cc(F)cc(NS(=O)(=O)N5CCCC5)c4F)c(-c4ccncc4)n3)c(F)c2)CCN1CC1CCN(c2ccc(C3CCC(=O)NC3=O)cn2)CC1 (mixture of isomers) [Compound 289, N-(3-(1-(4-((R)-4-((1-(5-((RS)-2,6-dioxopiperidin-3-yl)pyridin-2-yl)piperidin-4-yl)methyl)-3-methylpiperazin-1-yl)-2-fluorophenyl)-3-(pyridin-4-yl)-1H-pyrazol-4-yl)-2,5-difluorophenyl)pyrrolidine-1-sulfonamide]
< 10	> 70	< 10	> 70	< 10	> 70	< 10	> 70	O=C1CCC(c2ccc(N3CCC(CN4CCN(c5ccc(-n6cc(-c7cc(Cl)cc(NS(=O)(=O)N8CC[C@@H](F)C8)c7F)c(-c7ccncc7)n6)nc5)CC4)CC3)nc2)C(=O)N1 (mixture of isomers) [Compound 296, (3R)—N-{5-chloro-3-[1-(5-{4-[(1-{5-[(3RS)-2,6-dioxopiperidin-3-yl]pyridin-2-yl}piperidin-4-yl)methyl]piperazin-1-yl}pyridin-2-yl)-3-(pyridin-4-yl)-1H-pyrazol-4-yl]-2-fluorophenyl}-3-fluoropyrrolidine-1-sulfonamide]
50 to 500	30 to 70	> 500	< 30	> 500	< 30	> 500	< 30	O=C1CCC(c2ccc(N3CCC4(CC3)CC(CN3CCN(c5ccc(-n6cc(-c7cc(Cl)cc(NS(=O)(=O)N8CC[C@@H](F)C8)c7F)c(-c7ccncc7)n6)nc5)CC3)C4)cc2)C(=O)N1 (mixture of isomers) [Compound 298, (3R)—N-{5-chloro-3-[1-(5-{4-[(7-{4-[(3RS)-2,6-dioxopiperidin-3-yl]phenyl}-7-azaspiro[3.5]nonan-2-yl)methyl]piperazin-1-yl}pyridin-2-yl)-3-(pyridin-4-yl)-1H-pyrazol-4-yl]-2-fluorophenyl}-3-fluoropyrrolidine-1-sulfonamide]
< 10	> 70	< 10	> 70	10 to 50	> 70	< 10	> 70	O=C1CCC(c2ccc(N3CCC(CN4CCN(c5ccc(-n6cc(-c7cc(F)cc(NS(=O)(=O)N8CC[C@@H](F)C8)c7F)c(-c7ccncc7)n6)nc5)CC4)CC3)nc2)C(=O)N1 (mixture of isomers) [Compound 304, (3R)—N-{3-[1-(5-{4-[(1-{5-[(3RS)-2,6-dioxopiperidin-3-yl]pyridin-2-yl}piperidin-4-yl)methyl]piperazin-1-yl}pyridin-2-yl)-3-(pyridin-4-yl)-1H-pyrazol-4-yl]-2,5-difluorophenyl}-3-fluoropyrrolidine-1-sulfonamide]
< 10	> 70	< 10	> 70	< 10	> 70	< 10	> 70	C[C@@H]1CN(c2ccc(-n3cc(-c4cc(Cl)cc(NS(=O)(=O)N5CC[C@@H](F)C5)c4F)c(-c4ccncc4)n3)cc2)CCN1CC1CCN(c2ccc(C3CCC(=O)NC3=O)cn2)CC1 (mixture of isomers) [Compound 318, (3R)—N-[5-chloro-3-(1-{4-[(3R)-4-[(1-{5-[(3RS)-2,6-dioxopiperidin-3-yl]pyridin-2-yl}piperidin-4-yl)methyl]-3-methylpiperazin-1-yl]phenyl}-3-(pyridin-4-yl)-1H-pyrazol-4-yl)-2-fluorophenyl]-3-fluoropyrrolidine-1-sulfonamide]
